Legend:
Type in all cases: in vivo
[1] = test system: wheat (Triticum aestivum); experiment: Test A postemergence, wheat; details: Postemergence, 0 to 100 scale (0 no effect, 100 complete control); for Wheat plant response rating: visual injury vs untreated controls after approx. 10 days
Excerpt: (§1) Seeds of plant species selected from barnyardgrass (Echinochloa crus-galli), kochia (Bassia scoparia), ragweed (common ragweed, Ambrosia artemisiifolia), Ryegrass, Italian (Italian ryegrass, Lolium multiflorum), Foxtail, Giant (giant foxtail, Setaria faberi), and pigweed (Amaranthus retroflexus) were planted into a blend of loam soil and sand and treated preemergence with a directed soil spray using test chemicals formulated in a non-phytotoxic solvent mixture which included a surfactant. At the same time, plants selected from these weed species and also wheat (Triticum aestivum), corn (Zea mays), blackgrass (Alopecurus myosuroides), and galium (catchweed bedstraw, Galium aparine) were planted in pots containing the same blend of loam soil and sand and treated with postemergence applications of test chemicals formulated in the same manner. Plants ranged in height from 2 to 10 cm and were in the one- to two-leaf stage for the postemergence treatment. […] A dash (-) response means no test result.

[2] = test system: Foxtail, Giant (giant foxtail, Setaria faberi); experiment: Test A postemergence, Foxtail, Giant; details: Postemergence, 0 to 100 scale (0 no effect, 100 complete control); for Foxtail, Giant plant response rating: visual injury vs untreated controls after approx. 10 days
Excerpt: as §1

kochia (Bassia scoparia) [3] = experiment: Test A postemergence, kochia; details: Postemergence, 0 to 100 scale (0 no effect, 100 complete control); for Kochia plant response rating: visual injury vs untreated controls after approx. 10 days
Excerpt: as §1

[4] = test system: pigweed (Amaranthus retroflexus); experiment: Test A postemergence, pigweed; details: Postemergence, 0 to 100 scale (0 no effect, 100 complete control); for Pigweed plant response rating: visual injury vs untreated controls after approx. 10 days
Excerpt: as §1

[5] = test system: barnyardgrass (Echinochloa crus-galli); experiment: Test A postemergence, barnyardgrass; details: Postemergence, 0 to 100 scale (0 no effect, 100 complete control); for Barnyardgrass plant response rating: visual injury vs untreated controls after approx. 10 days
Excerpt: as §1

[6] = test system: Ryegrass, Italian (Italian ryegrass, Lolium multiflorum); experiment: Test A postemergence, Ryegrass, Italian; details: Postemergence, 0 to 100 scale (0 no effect, 100 complete control); for Ryegrass, Italian plant response rating: visual injury vs untreated controls after approx. 10 days
Excerpt: as §1

[7] = test system: barnyardgrass (Echinochloa crus-galli); experiment: Test A preemergence, barnyardgrass; details: Preemergence; for Barnyardgrass plant response rating: 125 g ai/ha, visual injury on 0 to 100 scale (0 no effect, 100 complete control), approximately 10 days; for Plant response rating, Barnyardgrass: 500 g ai/ha, 0 to 100 scale (0 no effect, 100 complete control)
Excerpt: as §1

[8] = test system: Ryegrass, Italian (Italian ryegrass, Lolium multiflorum); experiment: Test A preemergence, Ryegrass, Italian; details: Preemergence; for Ryegrass, Italian plant response rating: 125 g ai/ha, visual injury on 0 to 100 scale (0 no effect, 100 complete control), approximately 10 days; for Plant response rating, Ryegrass, Italian: 500 g ai/ha, 0 to 100 scale (0 no effect, 100 complete control)
Excerpt: as §1

kochia (Bassia scoparia) [9] = experiment: Test A preemergence, kochia; details: Preemergence; for Kochia plant response rating: 125 g ai/ha, visual injury on 0 to 100 scale (0 no effect, 100 complete control), approximately 10 days; for Plant response rating, Kochia: 500 g ai/ha, 0 to 100 scale (0 no effect, 100 complete control)
Excerpt: as §1

corn (Zea mays) = experiment: Test A postemergence, corn; details: Postemergence, 0 to 100 scale (0 no effect, 100 complete control); for Corn plant response rating: visual injury vs untreated controls after approx. 10 days
Excerpt: as §1

[10] = test system: blackgrass (Alopecurus myosuroides); experiment: Test A postemergence, blackgrass; details: Postemergence, 0 to 100 scale (0 no effect, 100 complete control); for Blackgrass plant response rating: visual injury vs untreated controls after approx. 10 days
Excerpt: as §1

[11] = test system: Foxtail, Giant (giant foxtail, Setaria faberi); experiment: Test A preemergence, Foxtail, Giant; details: Preemergence; for Foxtail, Giant plant response rating: 125 g ai/ha, visual injury on 0 to 100 scale (0 no effect, 100 complete control), approximately 10 days; for Plant response rating, Foxtail, Giant: 500 g ai/ha, 0 to 100 scale (0 no effect, 100 complete control)
Excerpt: as §1

[12] = test system: ragweed (common ragweed, Ambrosia artemisiifolia); experiment: Test A preemergence, ragweed; details: Preemergence; for Ragweed plant response rating: 125 g ai/ha, visual injury on 0 to 100 scale (0 no effect, 100 complete control), approximately 10 days; for Plant response rating, Ragweed: 500 g ai/ha, 0 to 100 scale (0 no effect, 100 complete control)
Excerpt: as §1

[13] = test system: galium (catchweed bedstraw, Galium aparine); experiment: Test A postemergence, galium; details: Postemergence, 0 to 100 scale (0 no effect, 100 complete control); for Galium plant response rating: visual injury vs untreated controls after approx. 10 days
Excerpt: as §1

[14] = test system: ragweed (common ragweed, Ambrosia artemisiifolia); experiment: Test A postemergence, ragweed; details: Postemergence, 0 to 100 scale (0 no effect, 100 complete control); for Ragweed plant response rating: visual injury vs untreated controls after approx. 10 days
Excerpt: as §1

[15] = 125 g ai/ha, visual injury approx. 10 days
[16] = 500 g ai/ha, visual injury, approx. 10 days

Compound | Wheat plant response rating ([1]; 500 g ai/ha) | Foxtail, Giant plant response rating ([2]; 500 g ai/ha) | Kochia plant response rating (kochia (Bassia scoparia) [3]; 500 g ai/ha) | Pigweed plant response rating ([4]; 500 g ai/ha) | Barnyardgrass plant response rating ([5]; 500 g ai/ha) | Ryegrass, Italian plant response rating ([6]; 500 g ai/ha) | Barnyardgrass plant response rating [7] | Plant response rating, Barnyardgrass [7] | Ryegrass, Italian plant response rating [8] | Plant response rating, Ryegrass, Italian [8] | Kochia plant response rating (kochia (Bassia scoparia) [9]) | Plant response rating, Kochia (kochia (Bassia scoparia) [9]) | Corn plant response rating (corn (Zea mays); 500 g ai/ha) | Blackgrass plant response rating ([10]; 500 g ai/ha) | Foxtail, Giant plant response rating [11] | Plant response rating, Foxtail, Giant [11] | Ragweed plant response rating [12] | Plant response rating, Ragweed [12] | Galium plant response rating ([13]; 500 g ai/ha) | Ragweed plant response rating ([14]; 500 g ai/ha) | other results
Cc1cc(C)c(C2=NOC3(C2)CC(C)OC(C)C3)cc1NS(=O)(=O)C(F)(F)F (single isomer, unassigned) [Compound 171] | 60 | 90 | 70 | 80 | 90 | 80 | 90 | 100 | 100 | 100 | 70 | 90 | 80 | 80 | 100 | 100 | 80 | 90 | 90 | 90 | Plant response rating, Wheat ([1]; 125 g ai/ha): 60; Plant response rating, Foxtail, Giant ([2]; 125 g ai/ha): 60; Plant response rating, Kochia (kochia (Bassia scoparia) [3]; 125 g ai/ha): 30; Plant response rating, Pigweed ([4]; 125 g ai/ha): 60; Plant response rating, Barnyardgrass ([5]; 125 g ai/ha): 90; Plant response rating, Ryegrass, Italian ([6]; 125 g ai/ha): 80; Plant response rating, Corn (corn (Zea mays); 125 g ai/ha): 80; Plant response rating, Blackgrass ([10]; 125 g ai/ha): 40; Plant response rating, Galium ([13]; 125 g ai/ha): 60; Plant response rating, Ragweed ([14]; 125 g ai/ha): 40
Cc1cc(C)c(C2=NOC3(C2)CC(C)OC(C)C3)cc1NS(=O)(=O)C(F)(F)F (single isomer, unassigned) [Compound 173] | 70 | 90 | 80 | 90 | 90 | 80 | 90 | 90 | 90 | 100 | 60 | 90 | 80 | 60 | 100 | 100 | 90 | 90 | 90 | 90 | Plant response rating, Wheat ([1]; 125 g ai/ha): 70; Plant response rating, Foxtail, Giant ([2]; 125 g ai/ha): 90; Plant response rating, Kochia (kochia (Bassia scoparia) [3]; 125 g ai/ha): 50; Plant response rating, Pigweed ([4]; 125 g ai/ha): 80; Plant response rating, Barnyardgrass ([5]; 125 g ai/ha): 80; Plant response rating, Ryegrass, Italian ([6]; 125 g ai/ha): 70; Plant response rating, Corn (corn (Zea mays); 125 g ai/ha): 70; Plant response rating, Blackgrass ([10]; 125 g ai/ha): 50; Plant response rating, Galium ([13]; 125 g ai/ha): 90; Plant response rating, Ragweed ([14]; 125 g ai/ha): 80
CCc1cc(-c2cc(N(S(=O)(=O)C(F)(F)F)S(=O)(=O)C(F)(F)F)c(C)cc2C)c(=O)n(C)n1 [Compound 28] | – | – | – | – | – | – | 60 | 100 | 50 | 90 | 70 | 90 | – | – | 30 | 90 | 0 | 30 | – | – | Plant response rating, Wheat [1, 15]: 30; Plant response rating, Wheat [1, 16]: 50; Plant response rating, Foxtail, Giant [2, 15]: 0; Plant response rating, Foxtail, Giant [2, 16]: 10; Plant response rating, Kochia (kochia (Bassia scoparia) [3]; [15]): 0; Plant response rating, Kochia (kochia (Bassia scoparia) [3]; [16]): 30; Plant response rating, Pigweed [4, 15]: 0; Plant response rating, Pigweed [4, 16]: 40; Plant response rating, Barnyardgrass [5, 15]: 0; Plant response rating, Barnyardgrass [5, 16]: 80; Plant response rating, Ryegrass, Italian [6, 15]: 0; Plant response rating, Ryegrass, Italian [6, 16]: 0; Plant response rating, Corn (corn (Zea mays); [15]): 0; Plant response rating, Corn (corn (Zea mays); [16]): 0; Plant response rating, Blackgrass [10, 15]: 0; Plant response rating, Blackgrass [10, 16]: 30; Plant response rating, Galium [13, 15]: 20; Plant response rating, Galium [13, 16]: 70; Plant response rating, Ragweed [14, 15]: 20; Plant response rating, Ragweed [14, 16]: 80
Cc1cc(C)c(C2=NOC(C(C)(C)C)C2)cc1NS(=O)(=O)C(F)(F)F (stereo not shown) [Compound 108] | 70 | 30 | 80 | 60 | 90 | 70 | 70 | 100 | 90 | 100 | 80 | 90 | 50 | 50 | 80 | 100 | 20 | 60 | 90 | 80 | Plant response rating, Wheat [1, 15]: 30; Plant response rating, Foxtail, Giant [2, 15]: 0; Plant response rating, Kochia (kochia (Bassia scoparia) [3]; [15]): 30; Plant response rating, Pigweed [4, 15]: 0; Plant response rating, Barnyardgrass [5, 15]: 20; Plant response rating, Ryegrass, Italian [6, 15]: 0; Plant response rating, Corn (corn (Zea mays); [15]): 0; Plant response rating, Blackgrass [10, 15]: 0; Plant response rating, Galium [13, 15]: 70; Plant response rating, Ragweed [14, 15]: 40
Cc1cc(C)c(N(S(=O)(=O)C(F)(F)F)S(=O)(=O)C(F)(F)F)cc1C1=NOC2(CCSCC2)C1 [Compound 114] | 60 | 80 | 40 | 80 | 70 | 40 | 50 | 80 | 70 | 90 | 30 | 70 | 50 | 50 | 90 | 100 | 0 | 10 | 90 | 30 | Plant response rating, Wheat [1, 15]: 60; Plant response rating, Foxtail, Giant [2, 15]: 50; Plant response rating, Kochia (kochia (Bassia scoparia) [3]; [15]): 10; Plant response rating, Pigweed [4, 15]: 60; Plant response rating, Barnyardgrass [5, 15]: 20; Plant response rating, Ryegrass, Italian [6, 15]: 40; Plant response rating, Corn (corn (Zea mays); [15]): 20; Plant response rating, Blackgrass [10, 15]: 30; Plant response rating, Galium [13, 15]: 90; Plant response rating, Ragweed [14, 15]: 0
COC1CCN(C(=O)c2cc(N(S(=O)(=O)C(F)(F)F)S(=O)(=O)C(F)(F)F)c(C)cc2C)C1 (stereo not shown) [Compound 138] | – | – | – | – | – | – | – | – | – | – | – | – | – | – | – | – | – | – | – | – | Plant response rating, Wheat ([1]; 125 g ai/ha): 30; Plant response rating, Pigweed ([4]; 125 g ai/ha): 90; Plant response rating, Ryegrass, Italian ([6]; 125 g ai/ha): 0; Plant response rating, Ragweed ([14]; 125 g ai/ha): 30
